Experimental data from patent publication US20260151518A1, “LEUKOCYTE-SPECIFIC CELL PENETRATING MOLECULES” (Amytrx Therapeutics, Inc., priority 2021, published 2026).
Marks after values point to notes of the source that are not given here.

Test: Tissue distribution of radioactivity by quantitative whole body autoradiography (QWBA) after single intravenous [3H]-AMTX-100
Type: in vivo, rat
Description: The formulation was administered directly into a tail vein. The dose volume (2.5 mL/kg) was used to achieve a dose level of 5 mg/kg and radioactive dose levels of 100 μCi/kg (Phase 1) and 500 μCi/kg (Phase 2). The dose formulation was stirred continuously throughout the dosing procedure.
Quantitative Whole Body Autoradiography (QWBA). The frozen carcasses were subjected to QWBA. Sections were presented at up to five different levels of the rat body to include between 30 and 40 tissues (subject to presence of sufficient radioactivity).
The freeze-dried whole body autoradiography sections were exposed to phosphor-storage imaging plates and incubated at ambient temperature in the dark for seven days. Calibrated autoradiographic blood standards containing known amounts of radioactivity (nCi/g) were included in each exposure.
Distribution of radioactivity in tissues and [^3H]-blood standards (prepared and validated at Pharmaron UK Ltd.) was determined and quantified using a Fuji FLA-5100 fluorescent image analyzing system and associated Tina (version 2.09) and SeeScan (version 2.0) software. For each exposure, a standard curve was produced in SeeScan using the data from the autoradiographic blood standards from which tissue concentrations of radioactivity (μg equivalents/g) were determined.
A representative background radioactivity measurement for each exposure plate used was also taken. The number of measurements for each particular tissue was determined by the number of levels it appeared in. Multiple measurements were therefore performed for larger tissues that appeared in more than one level (e.g. liver), with only one measurement obtained for small tissues (e.g. thyroid gland). The limit of accurate quantification was considered to be the lowest [^3H]-blood standard visible.
Three of the carcasses obtained from the eight male Sprague Dawley rats subjected to whole blood collection and analysis after each receiving a single intravenous administration of [^3H]-AMTX-100, were selected for QWBA analysis at each of the following time points: 10 minutes and 2 and 12 hours post-dose.
Each carcass was snap frozen by immersion in a hexane/dry ice mixture immediately after collection and was then stored at approximately −20° C., pending analysis by QWBA.

[1] = single intravenous, 5 mg/kg, rat, 10 min
[2] = single intravenous, 5 mg/kg, rat, 2 hr
[3] = single intravenous, 5 mg/kg, rat, 12 hr

CSCC[C@@H]1NC(=O)[C@H](CC(C)C)NC(=O)[C@H](CCCCN)NC(=O)[C@H](CCC(N)=O)CC(=O)[C@H](CCCNC(=N)N)NC(=O)[C@H](CCCCN)NC(=O)[C@H](CCCNC(=N)N)NC(=O)[C@H](CCC(N)=O)NC(=O)[C@H](C(C)C)NC(=O)[C@@H](NC(=O)[C@@H]2CCCN2C(=O)[C@H](C)NC(=O)[C@H](CC(C)C)NC(=O)[C@H](CC(C)C)NC(=O)[C@H](C)NC(=O)[C@H](CC(C)C)NC(=O)[C@H](CC(C)C)NC(=O)[C@@H](NC(=O)[C@H](C)NC(=O)[C@@H]2CCCN2C(=O)[C@H](CC(C)C)NC(=O)[C@H](CC(C)C)NC(=O)[C@H](C)NC(=O)[C@@H](NC(=O)[C@H](C)NC(=O)[C@H](C)N)C(C)C)C(C)C)CSSC[C@@H](C(=O)O)NC(=O)[C@@H]2CCCN2C1=O [[^3H]-AMTX-100]
Radioactivity localization in heart and other muscle cells (rats): lack of radioactivity localization in heart and other muscle cells
Organ localization of radioactivity (rats, spleen, lung, liver, lymph nodes, kidney, adrenal gland, bone marrow, pancreas, small intestine, etc.): localized to organs where immune cells are known to reside and traffic through
Concentration of radioactivity in Adrenal gland [1]: 9.93 μg equivalents/g
Concentration of radioactivity in Blood: residual cardiac [1]: 2.89 μg equivalents/g
Concentration of radioactivity in Bone [1]: BLQ (Below lower limit of accurate quantification (<0.36 μg equivalents/g))
Concentration of radioactivity in Bone marror [1]: 4.44 μg equivalents/g
Concentration of radioactivity in Brain [1]: BLQ (Below lower limit of accurate quantification (<0.36 μg equivalents/g))
Concentration of radioactivity in Caecum contents [1]: BLQ (Below lower limit of accurate quantification (<0.36 μg equivalents/g))
Concentration of radioactivity in Caecum mucosa [1]: 0.82 μg equivalents/g
Concentration of radioactivity in Choroid plexus [1]: 0.71 μg equivalents/g
Concentration of radioactivity in Epididymis [1]: 0.44 μg equivalents/g
Concentration of radioactivity in Ex-orbital lachrymal gland [1]: 0.71 μg equivalents/g
Concentration of radioactivity in Eye: lens [1]: BLQ (Below lower limit of accurate quantification (<0.36 μg equivalents/g))
Concentration of radioactivity in Eye: whole [1]: BLQ (Below lower limit of accurate quantification (<0.36 μg equivalents/g))
Concentration of radioactivity in Fat: brown [1]: 0.59 μg equivalents/g
Concentration of radioactivity in Fat: white [1]: 0.38 μg equivalents/g
Concentration of radioactivity in Forestomach mucosa [1]: 0.52 μg equivalents/g
Concentration of radioactivity in Glandular stomach mucosa [1]: 1.13 μg equivalents/g
Concentration of radioactivity in Harderian gland [1]: 0.46 μg equivalents/g
Concentration of radioactivity in Kidney: cortex [1]: 16.30 μg equivalents/g
Concentration of radioactivity in Kidney: medulla [1]: 10.10 μg equivalents/g
Concentration of radioactivity in Kidney: whole [1]: 13.30 μg equivalents/g
Concentration of radioactivity in Large intestine contents [1]: BLQ (Below lower limit of accurate quantification (<0.36 μg equivalents/g))
Concentration of radioactivity in Large intestine mucosa [1]: 0.80 μg equivalents/g
Concentration of radioactivity in Liver [1]: 58.60 μg equivalents/g
Concentration of radioactivity in Lung [1]: 96.70 μg equivalents/g
Concentration of radioactivity in Lymph node [1]: 1.13 μg equivalents/g
Concentration of radioactivity in Muscle [1]: 0.52 μg equivalents/g
Concentration of radioactivity in Myocardium [1]: 1.25 μg equivalents/g
Concentration of radioactivity in Pancreas [1]: 1.71 μg equivalents/g
Concentration of radioactivity in Pituitary gland [1]: 2.21 μg equivalents/g
Concentration of radioactivity in Prostate gland [1]: 0.41 μg equivalents/g
Concentration of radioactivity in Salivary gland [1]: 1.09 μg equivalents/g
Concentration of radioactivity in Skin [1]: 0.48 μg equivalents/g
Concentration of radioactivity in Small intestine contents [1]: BLQ (Below lower limit of accurate quantification (<0.36 μg equivalents/g))
Concentration of radioactivity in Small intestine mucosa [1]: 0.54 μg equivalents/g
Concentration of radioactivity in Spinal cord [1]: BLQ (Below lower limit of accurate quantification (<0.36 μg equivalents/g))
Concentration of radioactivity in Spleen: red pulp [1]: 15.40 μg equivalents/g
Concentration of radioactivity in Spleen: white pulp [1]: 8.70 μg equivalents/g
Concentration of radioactivity in Spleen: whole [1]: 55.80 μg equivalents/g
Concentration of radioactivity in Stomach contents [1]: BLQ (Below lower limit of accurate quantification (<0.36 μg equivalents/g))
Concentration of radioactivity in Testis [1]: BLQ (Below lower limit of accurate quantification (<0.36 μg equivalents/g))
Concentration of radioactivity in Thymus [1]: 0.45 μg equivalents/g
Concentration of radioactivity in Thyroid gland [1]: 1.66 μg equivalents/g
Concentration of radioactivity in Urinary bladder contents [1]: 67.50 μg equivalents/g
Concentration of radioactivity in Urinary bladder wall [1]: 0.69 μg equivalents/g
Concentration of radioactivity in Adrenal gland [2]: 5.33 μg equivalents/g
Concentration of radioactivity in Blood: residual cardiac [2]: 0.82 μg equivalents/g
Concentration of radioactivity in Bone [2]: BLQ (Below lower limit of accurate quantification (<0.36 μg equivalents/g))
Concentration of radioactivity in Bone marror [2]: 4.40 μg equivalents/g
Concentration of radioactivity in Brain [2]: BLQ (Below lower limit of accurate quantification (<0.36 μg equivalents/g))
Concentration of radioactivity in Caecum contents [2]: BLQ (Below lower limit of accurate quantification (<0.36 μg equivalents/g))
Concentration of radioactivity in Caecum mucosa [2]: 0.76 μg equivalents/g
Concentration of radioactivity in Epididymis [2]: 0.67 μg equivalents/g
Concentration of radioactivity in Ex-orbital lachrymal gland [2]: 0.46 μg equivalents/g
Concentration of radioactivity in Eye: lens [2]: BLQ (Below lower limit of accurate quantification (<0.36 μg equivalents/g))
Concentration of radioactivity in Eye: whole [2]: BLQ (Below lower limit of accurate quantification (<0.36 μg equivalents/g))
Concentration of radioactivity in Fat: brown [2]: BLQ (Below lower limit of accurate quantification (<0.36 μg equivalents/g))
Concentration of radioactivity in Fat: white [2]: BLQ (Below lower limit of accurate quantification (<0.36 μg equivalents/g))
Concentration of radioactivity in Forestomach mucosa [2]: 0.57 μg equivalents/g
Concentration of radioactivity in Glandular stomach mucosa [2]: 0.81 μg equivalents/g
Concentration of radioactivity in Harderian gland [2]: 0.37 μg equivalents/g
Concentration of radioactivity in Kidney: cortex [2]: 9.59 μg equivalents/g
Concentration of radioactivity in Kidney: medulla [2]: 4.47 μg equivalents/g
Concentration of radioactivity in Kidney: whole [2]: 7.35 μg equivalents/g
Concentration of radioactivity in Large intestine contents [2]: BLQ (Below lower limit of accurate quantification (<0.36 μg equivalents/g))
Concentration of radioactivity in Large intestine mucosa [2]: 0.63 μg equivalents/g
Concentration of radioactivity in Liver [2]: 31.60 μg equivalents/g
Concentration of radioactivity in Lung [2]: 31.90 μg equivalents/g
Concentration of radioactivity in Lymph node [2]: 0.83 μg equivalents/g
Concentration of radioactivity in Muscle [2]: BLQ (Below lower limit of accurate quantification (<0.36 μg equivalents/g))
Concentration of radioactivity in Myocardium [2]: 0.53 μg equivalents/g
Concentration of radioactivity in Pancreas [2]: 1.69 μg equivalents/g
Concentration of radioactivity in Pituitary gland [2]: 1.58 μg equivalents/g
Concentration of radioactivity in Prostate gland [2]: 0.83 μg equivalents/g
Concentration of radioactivity in Salivary gland [2]: 0.80 μg equivalents/g
Concentration of radioactivity in Skin [2]: 0.39 μg equivalents/g
Concentration of radioactivity in Small intestine contents [2]: 1.23 μg equivalents/g
Concentration of radioactivity in Small intestine mucosa [2]: 0.89 μg equivalents/g
Concentration of radioactivity in Spinal cord [2]: BLQ (Below lower limit of accurate quantification (<0.36 μg equivalents/g))
Concentration of radioactivity in Spleen: red pulp [2]: 11.90 μg equivalents/g
Concentration of radioactivity in Spleen: white pulp [2]: 2.92 μg equivalents/g
Concentration of radioactivity in Spleen: whole [2]: 41.80 μg equivalents/g
Concentration of radioactivity in Stomach contents [2]: BLQ (Below lower limit of accurate quantification (<0.36 μg equivalents/g))
Concentration of radioactivity in Testis [2]: 0.37 μg equivalents/g
Concentration of radioactivity in Thymus [2]: 0.68 μg equivalents/g
Concentration of radioactivity in Thyroid gland [2]: 1.29 μg equivalents/g
Concentration of radioactivity in Urinary bladder wall [2]: 1.22 μg equivalents/g
Concentration of radioactivity in Urinary bladder contents (single intravenous, 5 mg/kg, rat, 2 hr, above upper limit of accurate quantification (>153 μg equivalents/g)): 219.00* μg equivalents/g
Concentration of radioactivity in Adrenal gland [3]: 0.44 μg equivalents/g
Concentration of radioactivity in Blood: residual cardiac [3]: BLQ (Below lower limit of accurate quantification (<0.36 μg equivalents/g))
Concentration of radioactivity in Bone marror [3]: 2.18 μg equivalents/g
Concentration of radioactivity in Caecum contents [3]: BLQ (Below lower limit of accurate quantification (<0.36 μg equivalents/g))
Concentration of radioactivity in Kidney: cortex [3]: 0.61 μg equivalents/g
Concentration of radioactivity in Kidney: medulla [3]: 0.45 μg equivalents/g
Concentration of radioactivity in Kidney: whole [3]: 0.54 μg equivalents/g
Concentration of radioactivity in Large intestine contents [3]: 0.36 μg equivalents/g
Concentration of radioactivity in Large intestine mucosa [3]: BLQ (Below lower limit of accurate quantification (<0.36 μg equivalents/g))
Concentration of radioactivity in Liver [3]: 8.77 μg equivalents/g
Concentration of radioactivity in Lung [3]: 30.10 μg equivalents/g
Concentration of radioactivity in Muscle [3]: BLQ (Below lower limit of accurate quantification (<0.36 μg equivalents/g))
Concentration of radioactivity in Pancreas [3]: BLQ (Below lower limit of accurate quantification (<0.36 μg equivalents/g))
Concentration of radioactivity in Small intestine contents [3]: 0.47 μg equivalents/g
Concentration of radioactivity in Small intestine mucosa [3]: BLQ (Below lower limit of accurate quantification (<0.36 μg equivalents/g))
Concentration of radioactivity in Spleen: red pulp [3]: 6.89 μg equivalents/g
Concentration of radioactivity in Spleen: white pulp [3]: 0.89 μg equivalents/g
Concentration of radioactivity in Spleen: whole [3]: 11.90 μg equivalents/g
Concentration of radioactivity in Testis [3]: BLQ (Below lower limit of accurate quantification (<0.36 μg equivalents/g))
Concentration of radioactivity in Urinary bladder contents [3]: 11.90 μg equivalents/g
Concentration of radioactivity in Urinary bladder wall [3]: BLQ (Below lower limit of accurate quantification (<0.36 μg equivalents/g))
